Measurements: the NIST ThermoML archive (doi:10.1016/j.jct.2013.02.017)

Details: relaxation calorimetry - Quantum Design PPMS; for molar entropy: 101.33 kPa

O=P([O-])([O-])[O-].[Fe+3] [iron(III) phosphate]
Details	molar entropy [J/K/mol]
1 K, Crystal 2	0.001252
2 K, Crystal 2	0.01157
3 K, Crystal 2	0.0497
4 K, Crystal 2	0.1381
5 K, Crystal 2	0.2911
6 K, Crystal 2	0.5136
7 K, Crystal 2	0.8015
8 K, Crystal 2	1.143
9 K, Crystal 2	1.528
10 K, Crystal 2	1.948
11 K, Crystal 2	2.4
12 K, Crystal 2	2.878
13 K, Crystal 2	3.381
14 K, Crystal 2	3.904
15 K, Crystal 2	4.446
16 K, Crystal 2	5.012
17 K, Crystal 2	5.603
18 K, Crystal 2	6.223
19 K, Crystal 2	6.877
20 K, Crystal 2	7.545
25 K, Crystal 1	11.49
30 K, Crystal 1	14.26
35 K, Crystal 1	16.51
40 K, Crystal 1	18.7
45 K, Crystal 1	20.89
50 K, Crystal 1	23.09
55 K, Crystal 1	25.3
60 K, Crystal 1	27.52
65 K, Crystal 1	29.74
70 K, Crystal 1	31.97
75 K, Crystal 1	34.2
80 K, Crystal 1	36.44
85 K, Crystal 1	38.66
90 K, Crystal 1	40.88
95 K, Crystal 1	43.09
100 K, Crystal 1	45.3
110 K, Crystal 1	49.7
120 K, Crystal 1	54.04
130 K, Crystal 1	58.32
140 K, Crystal 1	62.54
150 K, Crystal 1	66.7
160 K, Crystal 1	70.79
170 K, Crystal 1	74.82
180 K, Crystal 1	78.8
190 K, Crystal 1	82.72
200 K, Crystal 1	86.59
210 K, Crystal 1	90.41
220 K, Crystal 1	94.19
230 K, Crystal 1	97.92
240 K, Crystal 1	101.61
250 K, Crystal 1	105.25
260 K, Crystal 1	108.86
270 K, Crystal 1	112.42
273.15 K, Crystal 1	113.53
280 K, Crystal 1	115.93
290 K, Crystal 1	119.41
298.15 K, Crystal 1	122.21
300 K, Crystal 1	122.84

Details	Triple point temperature [K]
Crystal 2	25
